This is an account of results in patent US20220041641A1, “QUATERNARY AMMONIUM SALTS AS INHIBITORS OF TRIMETHYLAMINE PRODUCTION” (Senda Biosciences, Inc., priority 2018, published 2022).

Structures can show the parent of a compound that is named as a salt.

The format of data set [1] is in vitro ADME. Conditions: simulated gi fluid, 1 µM, pH 6.7. The method, then:
This assay was used to assess the stability of a conjugate in a small intestine.
Phosphate buffer was prepared by dissolving 0.42 g of sodium hydroxide pellets and 3.95 g of monobasic sodium phosphate monohydrate and 6.19 g of sodium chloride in ultrapure water (MilliQ®, Millipore Sigma, Darmstadt, Germany). The pH was adjusted to 6.7 using aq. HCl and aq. NaOH, as necessary, and the solution was diluted with ultrapure water to produce 1 L of the pH 6.7 buffer.
112 mg FaSSIF powder (Biorelevant™, London, UK) was dissolved in 50 mL of the pH 6.7 buffer. 2 to 3 mL of the resulting solution were then added to 500 mg pancreatin (Millipore Sigma, Darmstadt, Germany). The resulting mixture was agitated by finger tapping the vessel containing the mixture until milky suspension formed. At this time, the remainder of the 50 mL FaSSiF/pH 6.7 buffer solution was added. The resulting suspension was flipped upside down 10 times to produce SIF, which was used fresh.
Test compounds were dissolved in DMSO stock to 1 mM. An aliquot of the DMSO stock solution was removed and diluted in the SIF media in 15 mL falcon tubes to produce a mixture with a tested compound concentration of 1 μM. A 1 mL aliquot was immediately removed and diluted once with 1 volume of acetonitrile for T0 timepoint. The mixture was sealed and agitated at 37° C. in an incubator. Aliquots (1 mL) were removed at regular intervals and immediately quenched by the addition of 1 volume of acetonitrile. The resulting samples were analyzed by LCMS to determine degradation rates.

Data set [2] is classed as in vitro ADME. Conditions: 1 µM. How it is done:
This assay was used to assess the stability of a conjugate in a large intestine.
All experiments were performed in an anaerobic chamber containing 90% nitrogen, 5% hydrogen and 5% carbon dioxide. Colonic material was resuspended as a slurry (15% w/v final concentration) in pre-reduced, anaerobically sterilized dilution blanks (Anaerobe Systems AS-908). The colonic material was then inoculated into 96 well plates containing YCFAC media (Anaerobe Systems AS-680, 6.7 μL slurry into 1 mL total media). A compound was added to each individual well to reach a final analyte concentration of 1 μM, and the material was mixed by pipetting. Each sample was removed after set timepoints (0, 120, 240, 480, 1440, 2880 minutes after initiation of the assay), quenched with acetonitrile containing internal standard, and analyzed by LCMS.

Data set [3] is classed as in vitro ADME. Conditions: simulated gi fluid, 1 µM, pH 1.6. The method, then:
This assay was used to assess the stability of a conjugate in a stomach.
Medium was prepared by dissolving 2 g of sodium chloride in 0.6 L in ultrapure water (MilliQ®, Millipore Sigma, Darmstadt, Germany). The pH was adjusted to 1.6 with 1N hydrochloric acid, and the volume was then adjusted to 1 L with purified water.
60 mg FaSSIF powder (Biorelevant™, London, UK) were dissolved in 500 mL buffer (above). Pepsin was added (0.1 mg/mL) (Millipore Sigma, Darmstadt, Germany), and the solution was stirred. The resulting SGF media were used fresh for each experiment.
Test compounds were dissolved in DMSO stock to 1 mM. An aliquot of the DMSO stock solution was removed and diluted in the SGF Media in 15 mL falcon tubes to generate a total compound concentration of 1 μM. A 1 mL aliquot was immediately removed and diluted once with 1 volume of acetonitrile for T0 timepoint. The mixture was sealed and mixed at 37° C. in an incubator. Aliquots (1 mL) were removed at regular intervals and immediately quenched by the addition of 1 volume of acetonitrile. The resulting samples were analyzed by LCMS to determine degradation rates in SGF.

For data set [4], the target named is CutC from Proteus mirabilis (Proteus mirabilis, UniProt B4EYG1). The data set is described as follows: Cell-based assay for TMA production from a native producer (P. mirabilis). Conditions: d9-TMA from 1 mM d9-choline, 5 h, 37° C.; value 10 given when no fit or % TMA remaining at 10 μM higher than 15%; read-out: Average IC50 Whole cell P. mirabilis. The method, boiled down:
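Overnight anaerobic cultures of P. mirabilis or C. sporogenes, grown in BHI with 1 mM choline, were diluted and given 1 mM (trimethyl-d9)-choline plus compound at 10 μM final. After 5 h at 37° C., d9-TMA was quantified by LCMS.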

Data set [5] deals with CutC/D enzyme. The data set can be described thus: Acute mouse model (plasma TMAO on choline diet). It is filed as in vivo, male C57BL/6 mice. The essentials: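 Male C57BL/6 mice fed a diet with 1.0% choline (g/g) received compound in water by oral gavage once daily on days 1–3. Plasma taken 20 h after the last dose was protein-precipitated and TMAO quantified by LC-MS/MS against a 0.05-100 μM d9-TMAO calibration curve in control plasma.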

A short description of data set [6]: in vivo. Conditions: Sprague-Dawley, rat. Details: species or system Sprague-Dawley rats. The method, then: Sprague-Dawley rats (three rats per compound) were treated with a single intravenous (IV) 1 mg/kg dose or orally (PO) a single 10 mg/kg dose. Plasma concentrations of the conjugates were determined by LCMS at 5 minutes, 15 minutes, 30 minutes, 1 hour, 2 hours, 4 hours, 8 and 24 hours post compound administration. […] In addition, the plasma exposure and bioavailability of the active agent of was lower when dosed as a conjugate instead of the active agent alone.

Data set [7] in a line: Caco-2 permeability assay. It is filed as in vitro ADME. Conditions: human, Caco-2, pH 7.4. The method, then: Preparation of Caco-2 Cells: 50 μL and 25 mL of cell culture medium were added to each well of the Transwell insert and reservoir, respectively. The HTS transwell plates were incubated at 37° C., 5% CO2 for 1 hour before cell seeding. […] Cell culture medium was replaced every other day, beginning no later than 24 hours after initial plating.
Assessment of Cell Monolayer Integrity: Medium was removed from the reservoir and each Transwell insert and replaced with prewarmed fresh culture medium. Transepithelial electrical resistance (TEER) across the monolayer was measured using Millicell Epithelial Volt-Ohm measuring system (Millipore, USA). The Plate was returned to the incubator once the measurement was done. The TEER value was calculated according to the following equation: […]
Preparation of Solutions: 2 mM stock solutions in DMSO of control compounds were prepared and diluted with HBSS (10 mM HEPES, pH 7.4) to get 10 μM working solution. 0.2 mM stock solutions of test compounds in DMSO were prepared and diluted with HBSS (10 mM HEPES, pH 7.4 with 0.5% BSA) to get 1 μM working solution. Metoprolol, erythromycin and cimetidine were used as control compounds.
The Caco-2 plate was removed from the incubator. The monolayer was washed twice with pre-warmed HBSS (10 mM HEPES, pH 7.4). The plate was incubated at 37° C. for 30 minutes. To determine the rate of drug transport in the apical to basolateral direction, 125 μL of the working solution was added to the Transwell insert (apical compartment). A 50 μL sample was transferred immediately from the apical compartment to 200 μL of acetonitrile containing IS (100 nM alprazolam, 200 nM Caffeine and 100 nM tolbutamide) in a new 96-well plate as the initial donor sample (A-B) and it was vortexed at 1000 rpm for 10 minutes. The wells in the receiver plate (basolateral compartment) were filled with 235 μL of transport buffer. To determine the rate of drug transport in the basolateral to apical direction, 285 μL of the working solution were added to the receiver plate wells (basolateral compartment). A 50 μL sample was transferred immediately from the basolateral compartment to 200 μL of acetonitrile containing IS (100 nM alprazolam, 200 nM Caffeine and 100 nM tolbutamide) in a new 96-well plate as the initial donor sample (B-A) and it was vortexed at 1000 rpm for 10 minutes. The Transwell insert (apical compartment) was filled with 75 μL of transport buffer. The apical to basolateral direction and the basolateral to apical direction need to be done at the same time. The plates were incubated at 37° C. for 2 hours. At the end of the incubation, 50 μL samples from donor sides (apical compartment for Ap→Bl flux, and basolateral compartment for B1→Ap) and receiver sides (basolateral compartment for Ap→Bl flux, and apical compartment for B1→Ap) were transferred to wells of a new 96-well plate, followed by the addition of 4 volume of acetonitrile containing IS (100 nM alprazolam, 200 nM Caffeine and 100 nM tolbutamide). Samples were vortexed for 10 minutes, 50 μL samples were transferred to wells of a new 96-well plate, followed by the addition of 50 μL Hepes and 200 μL IS. All samples were vortexed for 10 minutes, and then centrifuged at 3,220 g for 40 minutes. An aliquot of 150 μL of the supernatant was mixed with an appropriate volume of ultra-pure water before LC-MS/MS analysis.
Apparent permeability (Papp) can be calculated for drug transport assays using the following equation: […]
Papp is apparent permeability (cm/s×10^−6);
Papp (B-A) indicates the apparent permeability coefficient in basolateral to apical direction, and
Papp (A-B) indicates the apparent permeability coefficient in apical to basolateral direction.
(Caco-2 monolayers are a common model of the intestinal barrier.)

Chain of CutC from Proteus mirabilis (B4EYG1 entry or part of it): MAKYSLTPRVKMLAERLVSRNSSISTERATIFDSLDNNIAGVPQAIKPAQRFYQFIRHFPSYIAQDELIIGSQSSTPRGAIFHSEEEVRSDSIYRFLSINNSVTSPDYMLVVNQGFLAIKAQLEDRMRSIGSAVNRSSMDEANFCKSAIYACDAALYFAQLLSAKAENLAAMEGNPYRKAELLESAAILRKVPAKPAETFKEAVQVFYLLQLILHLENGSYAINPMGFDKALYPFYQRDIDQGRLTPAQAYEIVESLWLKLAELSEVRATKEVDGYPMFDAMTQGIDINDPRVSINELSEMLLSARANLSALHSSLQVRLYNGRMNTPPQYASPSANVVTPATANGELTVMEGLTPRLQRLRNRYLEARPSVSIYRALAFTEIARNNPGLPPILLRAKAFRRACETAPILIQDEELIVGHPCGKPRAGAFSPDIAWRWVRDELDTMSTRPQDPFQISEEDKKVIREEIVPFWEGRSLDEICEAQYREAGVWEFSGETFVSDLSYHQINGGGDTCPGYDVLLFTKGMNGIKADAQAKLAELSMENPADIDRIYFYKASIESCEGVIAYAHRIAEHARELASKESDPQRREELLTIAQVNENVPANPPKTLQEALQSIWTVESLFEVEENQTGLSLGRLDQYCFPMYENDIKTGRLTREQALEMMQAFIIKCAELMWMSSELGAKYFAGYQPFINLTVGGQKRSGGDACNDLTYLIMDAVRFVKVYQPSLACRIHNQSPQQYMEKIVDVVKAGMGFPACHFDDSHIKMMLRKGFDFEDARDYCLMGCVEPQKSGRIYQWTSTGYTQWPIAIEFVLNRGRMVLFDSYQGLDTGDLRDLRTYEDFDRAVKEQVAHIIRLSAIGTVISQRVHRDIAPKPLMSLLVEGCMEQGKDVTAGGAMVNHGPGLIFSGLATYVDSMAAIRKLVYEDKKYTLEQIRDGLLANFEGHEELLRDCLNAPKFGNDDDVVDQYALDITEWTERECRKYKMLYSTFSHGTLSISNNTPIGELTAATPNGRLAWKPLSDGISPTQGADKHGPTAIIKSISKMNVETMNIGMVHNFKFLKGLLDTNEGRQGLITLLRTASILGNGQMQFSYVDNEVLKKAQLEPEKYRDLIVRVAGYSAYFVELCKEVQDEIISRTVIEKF
Chain of CutC from Proteus mirabilis (B4EYG0 entry or part of it, further chain): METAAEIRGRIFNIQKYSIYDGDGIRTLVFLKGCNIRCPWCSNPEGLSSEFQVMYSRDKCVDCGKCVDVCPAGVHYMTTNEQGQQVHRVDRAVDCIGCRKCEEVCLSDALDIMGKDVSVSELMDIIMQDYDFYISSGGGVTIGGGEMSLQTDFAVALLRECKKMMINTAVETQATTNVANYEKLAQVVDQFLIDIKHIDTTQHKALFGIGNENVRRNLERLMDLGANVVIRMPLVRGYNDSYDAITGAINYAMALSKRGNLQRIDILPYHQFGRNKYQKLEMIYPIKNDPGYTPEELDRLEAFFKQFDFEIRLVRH

As to `C#CC[N+](C)(C)CC(=O)O[C@@H]1O[C@H](COC(C)=O)[C@@H](OC(C)=O)[C@H](OC(C)=O)[C@H]1OC(C)=O` [Compound 303, N,N-dimethyl-N-(2-oxo-2-(((2S,3R,4S,5R,6R)-3,4,5-triacetoxy-6-(acetoxymethyl)tetrahydro-2H-pyran-2-yl)oxy)ethyl)prop-2-yn-1-aminium Trifluoroacetate], in data set [1], the “Assay 2- FaSSIF Stability: % Remaining at 4 hr” value is given as 0.03%. The “Assay 3- Colonic Material Stability Assay % Remaining at 24 hr” value in data set [2] is on record as 0.16%. Besides, in data set [3], the “Assay 1- FaSSGF Stability: % Remaining at 1 hr” value is on record as 60.49%.

One may read the IC50 as the concentration at which inhibition is half-maximal. Turning to `C#CC[N+](C)(C)CCO[C@@H]1CO[C@H]2[C@@H]1OC[C@@H]2O` [Compound 72, N-(2-(((3R,3aR,6S,6aR)-6-hydroxyhexahydrofuro[3,2-b]furan-3-yl)oxy)ethyl)-N,N-dimethylprop-2-yn-1-aminium trifluoroacetate], in data set [2], the “Assay 3- Colonic Material Stability Assay % Remaining at 24 hr” value came out at 110%. Further, the “Assay 1- FaSSGF Stability: % Remaining at 1 hr” value in data set [3] is 102.71%. Further, the 50% inhibitory concentration (IC50) in data set [4] was at least 10 µM.

Turning to `CC(=O)OC[C@H]1O[C@@H](OCC[N+](C)(CF)C2CC2)[C@H](OC(C)=O)[C@@H](OC(C)=O)[C@@H]1OC(C)=O.[I-]` (stereo partly drawn) [Compound 86, N-(fluoromethyl)-N-methyl-N-(2-{[(2R,3R,4S,5R,6R)-3,4,5-tris(acetyloxy)-6-[(acetyloxy)methyl]oxan-2-yl]oxy}ethyl)cyclopropanaminium Iodide], the “% change from vehicle control + choline diet” value is recorded as −33% in data set [5] (Table 4g, 37.3 mg/kg oral gavage days 1-3) and −83% in data set [5] (Table 4g, 112 mg/kg oral gavage days 1-3). The “Mean plasma TMAO” value is 18.6 µM in data set [5] (Table 4g, 37.3 mg/kg oral gavage days 1-3, plasma 20 h after last gavage) and 4.72 µM in data set [5] (Table 4g, 112 mg/kg oral gavage days 1-3, plasma 20 h after last gavage). Moreover, the “Assay 3- Colonic Material Stability Assay % Remaining at 24 hr” value in data set [2] was 56%. In addition, the half-maximal inhibitory concentration (IC50) in data set [4] was at least 10 µM.

One may read the Cmax as the highest concentration seen after dosing. The term bioavailability denotes dose-corrected exposure relative to a reference, in per cent. Lower therefore signals poor availability. In general, Papp A→B refers to the apparent permeability from the apical to the basolateral side of a cell layer. Read a high Papp A→B as fast passage. As a reminder, the Papp B→A is how fast a substance crosses the layer from the basolateral side. Take `C#CC[N+](C)(C)CCO[C@@H]1O[C@H](COC(C)=O)[C@@H](OC(C)=O)[C@H](OC(C)=O)[C@H]1OC(C)=O.[I-]` [Compound 7, N,N-dimethyl-N-(2-(((2R,3R,4S,5R,6R)-3,4,5-triacetoxy-6-(acetoxymethyl)tetrahydro-2H-pyran-2-yl)oxy)ethyl)prop-2-yn-1-aminium Iodide]: the “% change from vehicle control + choline diet” value was −79.95% in data set [5] (Table 4a, 358 mg/kg oral gavage days 1-3); −2.97% in data set [5] (Table 4c, 35.8 mg/kg oral gavage days 1-3); −24.83% in data set [5] (Table 4c, 107 mg/kg oral gavage days 1-3); −69.46% in data set [5] (Table 4c, 358 mg/kg oral gavage days 1-3). Moreover, the “Mean plasma TMAO” value in data set [5] (Table 4a, 358 mg/kg oral gavage days 1-3, plasma 20 h after last gavage) came out at 6.90 µM; in data set [5] (Table 4c, 35.8 mg/kg oral gavage days 1-3, plasma 20 h after last gavage), 20.4 µM; in data set [5] (Table 4c, 107 mg/kg oral gavage days 1-3, plasma 20 h after last gavage) it was 15.8 µM; in data set [5] (Table 4c, 358 mg/kg oral gavage days 1-3, plasma 20 h after last gavage), 6.41 µM. The peak concentration (Cmax) in data set [6] (iv, 1 mg/kg) turned out to be 19.7 µM; in data set [6] (po, 10 mg/kg) it was 0.0162 µM. Also, the bioavailability in data set [6] (po, 10 mg/kg) was found to be 1.1%. For the same compound, in data set [7], the apical-to-basolateral permeability (Papp A→B) at 2 h, 1 µM was found to be 0.1 ×10⁻⁶ cm/s. The compound further registered a Papp B→A at 2 h, 1 µM in data set [7] of 0.15 ×10⁻⁶ cm/s. Further, the IC50 in data set [4] was found to be 3.16 µM.

Turning to `C#CC[N+](C)(C)CC(=O)OC[C@H]1OC(OC(C)=O)[C@H](OC(C)=O)[C@@H](OC(C)=O)[C@@H]1OC(C)=O.O=C([O-])C(F)(F)F` (stereo partly drawn) [Compound 304, N,N-dimethyl-N-(2-oxo-2-(((2R,3R,4S,5R)-3,4,5,6-tetraacetoxytetrahydro-2H-pyran-2-yl)methoxy)ethyl)prop-2-yn-1-aminium Trifluoroacetate], in data set [1], the “Assay 2- FaSSIF Stability: % Remaining at 4 hr” value is given as 13.44%. Besides, the “Assay 3- Colonic Material Stability Assay % Remaining at 24 hr” value in data set [2] is 0.94%. In addition, the “Assay 1- FaSSGF Stability: % Remaining at 1 hr” value in data set [3] is 114.28%.
